Measurements from patent US20010016605A1, “Use of a phenylurea derivative for controlling crown and root rot in beet” (priority 2000, published 2001).

System: Rhizoctonia solani AG 2-2
Assay: Inhibition of the growth of Rhizoctonia solani AG 2-2 on nutrient medium / protective
Type: cell-based
Conditions: 0% = untreated control, 100% = complete inhibition of fungal growth, evaluation after 2 to 14 days
Experimental: Inhibition of the growth of Rhizoctonia solani AG 2-2 (anastomosis group 2-2)/protective
The substances are tested on suitable nutrient media for their activity against Rhizoctonia solani AG 2-2. To this end, the stated amount of active compound is in each case added to and intensively mixed with the stated amount of nutrient medium. The mixture in question is transferred into a culture vessel, inoculated with Rhizoctonia solani AG 2-2 and incubated at a suitable temperature. At certain intervals, the growth of the microorganism is assessed.
A nutrient medium of the following composition is used:
These components are dissolved in 1000 ml of distilled water and autoclaved at 121° C. for 30 minutes. The active compound at the stated concentration is then mixed with the nutrient medium. However, in all cases solvent and nutrient medium are present in the following weight ratio:
These mixtures are poured into Petri dishes having a diameter of 9 cm and a volume of 10 ml. Once the nutrient substrate has cooled and solidified, it is inoculated in the centre of the Petri dish with an inoculation piece having a diameter of 0.5 cm.
Evaluation is carried out after 2 to 14 days—depending on the rate of growth of the microorganism. The effect on the development of the culture is determined by comparing the individual test samples. 0% means an efficacy which corresponds to that of the untreated test variant. In contrast, an efficacy of 100% means complete inhibition of fungal growth.

[1] = active compound application rate 0.1 ppm in nutrient medium
[2] = active compound application rate 1 ppm in nutrient medium
[3] = active compound application rate 10 ppm in nutrient medium
[4] = active compound application rate 100 ppm in nutrient medium

| Compound | Efficacy in % [1] | Efficacy in % [2] | Efficacy in % [3] | Efficacy in % [4] |
| --- | --- | --- | --- | --- |
| CO/C=C(/C(=O)OC)c1ccccc1Oc1cc(Oc2ccccc2C#N)ncn1 [azoxystrobin] | 45% | 48% | 59% | 64% |
| O=C(Nc1ccccc1)N(Cc1ccc(Cl)cc1)C1CCCC1 [pencycuron, N-4-chloro-benzyl-N-cyclopentyl-N′-phenylurea] | 70% | 98% | 100% | 100% |
| Cc1cc(O)no1 [hymexazol] | 7% | 5% | 8% | 35% |
